# Data reported in PubChem BioAssay AID256 (DTP/NCI, 2004).
# Values joined by “and” are separate entries in the source; they are usually repeats but may differ in a detail not shown here. Equal entries are not always repeated. Inconclusive results and toxic doses are left out.
# Tested on: CD2F1 mice, L1210 leukemia ip, survival T/C
# Experiment: NCI In Vivo Anticancer Drug Screen. Data for tumor model L1210 Leukemia (intraperitoneal) in CD2F1 (CDF1) mice
# Conditions: higher = longer survival
# Procedure, shortened: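 Transplantable tumor in mice; compound-treated vs vehicle-treated groups. Read-out = treated/control ratio of the measured endpoint.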
# [1] = endpoint: mean survival time, dose: 100.0 mg/kg/injection, schedule: Q04DX002 (ip), vehicle: saline with Tween-80
# [2] = endpoint: mean survival time, dose: 200.0 mg/kg/injection, schedule: Q01DX001 (ip), vehicle: saline with Tween-80
# [3] = endpoint: mean survival time, dose: 200.0 mg/kg/injection, schedule: Q04DX002 (ip), vehicle: saline with Tween-80
# [4] = endpoint: mean survival time, dose: 400.0 mg/kg/injection, schedule: Q01DX001 (ip), vehicle: saline with Tween-80
# [5] = endpoint: mean survival time, dose: 25.0 mg/kg/injection, schedule: Q01DX009 (ip), vehicle: saline with Tween-80
# [6] = endpoint: mean survival time, dose: 50.0 mg/kg/injection, schedule: Q01DX009 (ip), vehicle: saline with Tween-80
# [7] = endpoint: mean survival time, dose: 100.0 mg/kg/injection, schedule: Q01DX009 (ip), vehicle: saline with Tween-80
# [8] = endpoint: mean survival time, dose: 200.0 mg/kg/injection, schedule: Q01DX009 (ip), vehicle: saline with Tween-80
# [9] = endpoint: mean survival time, dose: 400.0 mg/kg/injection, schedule: Q01DX009 (ip), vehicle: saline with Tween-80
# [10] = endpoint: mean survival time, dose: 100.0 mg/kg/injection, schedule: Q04DX003 (ip), vehicle: saline with Tween-80
# [11] = endpoint: mean survival time, dose: 400.0 mg/kg/injection, schedule: Q04DX002 (ip), vehicle: saline with Tween-80
# [12] = endpoint: mean survival time, dose: 100.0 mg/kg/injection, schedule: Q01DX001 (ip), vehicle: saline with Tween-80
smiles,measurement,setting,value
Cn1c(CC#N)c(C[N+](C)(C)C)c2ccccc21,T/C,"endpoint: mean survival time, dose: 2.5 mg/kg/injection, schedule: Q01DX009 (ip), vehicle: saline with Tween-80",97 % of control
same,T/C,"endpoint: mean survival time, dose: 5.0 mg/kg/injection, schedule: Q01DX001 (ip), vehicle: saline with Tween-80",102 % of control
same,T/C,"endpoint: mean survival time, dose: 5.0 mg/kg/injection, schedule: Q01DX009 (ip), vehicle: saline with Tween-80",97 % of control
same,T/C,"endpoint: mean survival time, dose: 10.0 mg/kg/injection, schedule: Q01DX001 (ip), vehicle: saline with Tween-80",96 % of control
CN1CC2(Cc3ccccc3)c3ccccc3NC2(NC(=O)CCl)C1=O (stereo not given),T/C,"endpoint: mean survival time, dose: 25.0 mg/kg/injection, schedule: Q04DX002 (ip), vehicle: saline with Tween-80",87 % of control
same,T/C,"endpoint: mean survival time, dose: 50.0 mg/kg/injection, schedule: Q04DX002 (ip), vehicle: saline with Tween-80",95 % of control
same,T/C,[1],91 % of control
same,T/C,[2],92 % of control
same,T/C,[3],89 % of control
same,T/C,[4],96 % of control
CCOC(=O)[C@]1(Br)CC[C@@]1(Br)C(=O)OCC,T/C,"endpoint: mean survival time, dose: 12.5 mg/kg/injection, schedule: Q01DX009 (ip), vehicle: saline with Tween-80",96 % of control
same,T/C,[5],95 % of control and 96 % of control
same,T/C,[6],92 % of control and 96 % of control
same,T/C,[7],93 % of control and 101 % of control
same,T/C,[8],100 % of control and 101 % of control
same,T/C,[9],98 % of control and 106 % of control
Clc1cccc(-c2cc(-c3ccccc3)[nH]n2)c1,T/C,"endpoint: mean survival time, dose: 100.0 mg/kg/injection, schedule: Q01DX001 (ip), vehicle: saline sonified",95 % of control
same,T/C,"endpoint: mean survival time, dose: 200.0 mg/kg/injection, schedule: Q01DX001 (ip), vehicle: saline sonified",97 % of control
same,T/C,"endpoint: mean survival time, dose: 400.0 mg/kg/injection, schedule: Q01DX001 (ip), vehicle: saline sonified",97 % of control
CC(=O)C(C)(c1ccccc1)N(Cc1ccccc1)C(=O)c1ccccc1 (stereo not given),T/C,"endpoint: mean survival time, dose: 100.0 mg/kg/injection, schedule: Q01DX001 (ip), vehicle: saline",96 % of control
same,T/C,"endpoint: mean survival time, dose: 200.0 mg/kg/injection, schedule: Q01DX001 (ip), vehicle: saline",98 % of control
same,T/C,"endpoint: mean survival time, dose: 400.0 mg/kg/injection, schedule: Q01DX001 (ip), vehicle: saline",96 % of control
O=[N+]([O-])c1ccc(-c2ccccc2)cc1,T/C,[10],100 % of control
same,T/C,"endpoint: mean survival time, dose: 200.0 mg/kg/injection, schedule: Q04DX003 (ip), vehicle: saline with Tween-80",96 % of control
same,T/C,"endpoint: mean survival time, dose: 400.0 mg/kg/injection, schedule: Q04DX003 (ip), vehicle: saline with Tween-80",97 % of control
Nc1nc2c([nH]c(=S)n2C2OC(CO)C(O)C2O)c(=O)[nH]1 (stereo not given),T/C,[1],100 % of control
same,T/C,[3],97 % of control
same,T/C,[11],97 % of control
CCCCC(CC)CNCC(CC)CCCC (stereo not given),T/C,"endpoint: mean survival time, dose: 50.0 mg/kg/injection, schedule: Q04DX003 (ip), vehicle: saline with Tween-80",93 % of control
same,T/C,[10],91 % of control
CCCCCCC(C(=O)OCC)P(=O)(OCC)OCC (stereo not given),T/C,"endpoint: mean survival time, dose: 18.75 mg/kg/injection, schedule: Q01DX009 (ip), vehicle: saline with Tween-80",98 % of control
same,T/C,"endpoint: mean survival time, dose: 37.5 mg/kg/injection, schedule: Q01DX009 (ip), vehicle: saline with Tween-80",96 % of control
same,T/C,"endpoint: mean survival time, dose: 75.0 mg/kg/injection, schedule: Q01DX009 (ip), vehicle: saline with Tween-80",96 % of control
same,T/C,"endpoint: mean survival time, dose: 75.0 mg/kg/injection, schedule: Q04DX003 (ip), vehicle: saline with Tween-80",95 % of control
CC(C)(C)c1cc(/C=N/NC(=O)CNC(=O)NCc2ccco2)cc(C(C)(C)C)c1O,T/C,[6],93 % of control
same,T/C,[7],101 % of control
same,T/C,[8],104 % of control
Cc1noc(N)c1N,T/C,"endpoint: median survival time, dose: 12.5 mg/kg/injection, schedule: Q01DX009 (ip), vehicle: water",98 % of control
same,T/C,"endpoint: median survival time, dose: 25.0 mg/kg/injection, schedule: Q01DX009 (ip), vehicle: water",100 % of control
same,T/C,"endpoint: median survival time, dose: 50.0 mg/kg/injection, schedule: Q01DX009 (ip), vehicle: water",100 % of control
same,T/C,"endpoint: median survival time, dose: 100.0 mg/kg/injection, schedule: Q01DX009 (ip), vehicle: water",113 % of control and 104 % of control and 110 % of control
same,T/C,"endpoint: median survival time, dose: 150.0 mg/kg/injection, schedule: Q01DX009 (ip), vehicle: water",109 % of control
O=[N+]([O-])/C(=C/C=C/c1ccccc1)c1ccccc1,T/C,[12],101 % of control
same,T/C,[2],103 % of control
same,T/C,[4],91 % of control
Cn1nnc2c(C(N)=O)ncn2c1=O,T/C,"endpoint: median survival time, dose: 6.25 mg/kg/injection, schedule: Q01DX009 (ip), vehicle: saline with Tween-80",111 % of control
same,T/C,"endpoint: median survival time, dose: 12.5 mg/kg/injection, schedule: Q01DX009 (ip), vehicle: saline with Tween-80",122 % of control
same,T/C,"endpoint: median survival time, dose: 25.0 mg/kg/injection, schedule: Q01DX009 (ip), vehicle: saline with Tween-80",151 % of control
same,T/C,"endpoint: median survival time, dose: 50.0 mg/kg/injection, schedule: Q01DX009 (ip), vehicle: saline with Tween-80",159 % of control and 168 % of control
same,T/C,"endpoint: median survival time, dose: 100.0 mg/kg/injection, schedule: Q01DX009 (ip), vehicle: saline with Tween-80",182 % of control and 193 % of control
same,T/C,"endpoint: median survival time, dose: 200.0 mg/kg/injection, schedule: Q01DX009 (ip), vehicle: saline with Tween-80",121 % of control and 93 % of control
O=C1C=C(C2OC(CI)C(O)C2O)C(=O)N1 (stereo not given),T/C,"endpoint: mean survival time, dose: 12.5 mg/kg/injection, schedule: Q01DX005 (ip), vehicle: water",109 % of control
same,T/C,"endpoint: mean survival time, dose: 25.0 mg/kg/injection, schedule: Q01DX005 (ip), vehicle: water",107 % of control
C#CC(OC(=O)NC(CCSC)C(=O)OC)(c1ccccc1)c1ccccc1 (stereo not given),T/C,"endpoint: mean survival time, dose: 25.0 mg/kg/injection, schedule: Q01DX001 (ip), vehicle: saline with Tween-80",102 % of control
same,T/C,"endpoint: mean survival time, dose: 50.0 mg/kg/injection, schedule: Q01DX001 (ip), vehicle: saline with Tween-80",94 % of control
same,T/C,[12],102 % of control
COc1c(O)ccc2c1CCCCC2=O,T/C,[6],100 % of control
same,T/C,[7],100 % of control
same,T/C,[8],100 % of control
CC(CC(=O)Nc1ccc(S(=O)(=O)F)cc1)c1ccc(N2C(N)=NC(N)=NC2(C)C)cc1 (stereo not given),T/C,"endpoint: mean survival time, dose: 12.5 mg/kg/injection, schedule: Q01DX009 (ip), vehicle: saline",109 % of control
same,T/C,"endpoint: mean survival time, dose: 25.0 mg/kg/injection, schedule: Q01DX009 (ip), vehicle: saline",109 % of control
same,T/C,"endpoint: mean survival time, dose: 50.0 mg/kg/injection, schedule: Q01DX009 (ip), vehicle: saline",113 % of control
same,T/C,"endpoint: mean survival time, dose: 100.0 mg/kg/injection, schedule: Q01DX009 (ip), vehicle: saline",113 % of control
same,T/C,"endpoint: mean survival time, dose: 100.0 mg/kg/injection, schedule: Q#A X018 (ip), vehicle: saline",116 % of control
same,T/C,"endpoint: mean survival time, dose: 150.0 mg/kg/injection, schedule: Q#A X018 (ip), vehicle: saline",119 % of control
same,T/C,"endpoint: mean survival time, dose: 200.0 mg/kg/injection, schedule: Q01DX009 (ip), vehicle: saline",113 % of control and 121 % of control
same,T/C,"endpoint: mean survival time, dose: 300.0 mg/kg/injection, schedule: Q01DX009 (ip), vehicle: saline",118 % of control
same,T/C,"endpoint: mean survival time, dose: 400.0 mg/kg/injection, schedule: Q01DX009 (ip), vehicle: saline",124 % of control
O=C(NCCc1c[nH]c2ccccc12)c1cccnc1,T/C,"endpoint: mean survival time, dose: 100.0 mg/kg/injection, schedule: Q04DX003 (ip), vehicle: acetone",98 % of control
same,T/C,"endpoint: mean survival time, dose: 200.0 mg/kg/injection, schedule: Q04DX003 (ip), vehicle: acetone",96 % of control
same,T/C,"endpoint: mean survival time, dose: 400.0 mg/kg/injection, schedule: Q04DX003 (ip), vehicle: acetone",98 % of control
C/C(C(=O)O)=C(\C)c1ccccc1,T/C,[1],92 % of control
same,T/C,[3],103 % of control
same,T/C,[11],103 % of control
CCOc1ccc(-c2nnc(Nc3ccc(S(=O)(=O)N4CCCCC4)cc3)s2)cc1,T/C,[5],95 % of control
same,T/C,[6],90 % of control
same,T/C,[7],86 % of control
C=CCN(CC=C)CCNc1cc(C)nc(Nc2nc3ccc(Cl)cc3[nH]2)n1,T/C,[12],94 % of control
same,T/C,[7],86 % of control
same,T/C,[2],92 % of control
same,T/C,[8],93 % of control
same,T/C,[4],94 % of control
same,T/C,[9],100 % of control
CN(C)CC1CCCCCC(CN(C)C)C1=O (stereo not given),T/C,"endpoint: mean survival time, dose: 75.0 mg/kg/injection, schedule: Q01DX001 (ip), vehicle: other",102 % of control
same,T/C,"endpoint: mean survival time, dose: 150.0 mg/kg/injection, schedule: Q01DX001 (ip), vehicle: other",106 % of control
